Laboratory results taken from patent US11833128B2, “Ketone carbonyl-containing hydrophobic antitumor drug and conjugate thereof as well as nano preparation containing conjugate, preparation method therefor, and application thereof” (Jiangsu Jibeier Pharmaceutical Co. Ltd., priority 2018, dated 2023).

How the values were obtained:
[1] = test system: human lung cancer A549 xenograft; experiment: Tumor inhibitory effect of DTX-AI in nude mice bearing human lung cancer A549 xenograft; settings: iv x 4 (qw); for Animal body weight (g) (After tumor removal): Day 43; for Tumor inhibition rate %: Day 43 (21st day from the last administration);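 as to all read-outs here: mice implanted subcutaneously with A549 tumor fragments, grouped 14 days later at mean tumor volume near 210–250 mm^3, grouping set as Day 0, animals sacrificed on Day 43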
From the text: A well-grown A549 lung cancer solid tumor was taken and cut into uniform small masses having a size of about 3 mm under sterile conditions. Each mouse was inoculated subcutaneously under the right armpit with one mass by using a trocar. 14 days after inoculation, the average tumor volume was about 210 to 250 mm^3. The mice were grouped according to the tumor sizes, and the average tumor volume of each group was basically the same. […] The long diameters (a) and the short diameters (b) of the tumors were measured with an electronic digital caliper twice a week. The calculation formula of tumor volume (TV) was: TV=½×a×b^2. The calculation formula of the relative tumor volume (RTV) was: RTV=Vt/V0, wherein V0 was the tumor volume measured at the time of grouping (namely, d0), and Vt was the tumor volume at each measurement. […] On Day 43 (56 days after inoculation), the animals were sacrificed and dissected, the tumors were incised and weighed, and the body weights of the animals after tumor removal were calculated.

[2] = test system: Hela tumor; experiment: Effects of the pH-responsive nano preparations on tumor in vivo (Hela tumor-bearing mice); settings: tail vein, once every seven days x3; for relative tumor inhibition rate: 30th day from the last administration
Experimental: Hela tumor-bearing mice were divided into four groups with five mice in each group. The first, second, and third groups were the treatment groups, in which tumor treatment was carried out by respectively injecting the drug via the tail vein of each Hela tumor-bearing mouse. […] The fourth group was the blank control group.
The mice in the first, second and third groups were treated by administering drugs once every seven days for a total of three injections. Each tumor-bearing mouse in each group was labeled, and the body weight and the tumor volume thereof throughout the treatment process were recorded. The tumor volume was calculated according to the following formula: V (mm^3)=½×length (mm)×width (mm)^2.
Moreover, the relative tumor inhibition rate was also calculated and analyzed.

## CC(=O)O[C@@]12CO[C@@H]1C[C@H](O)[C@@]1(C)C(=O)[C@H](O)C3=C(C)[C@@H](OC(=O)[C@H](O)[C@@H](NC(=O)OC(C)(C)C)c4ccccc4)C[C@@](O)([C@@H](OC(=O)c4ccccc4)[C@H]21)C3(C)C [Docetaxel, docetaxel, reference compound]
[1]; 20 mg/kg
  RTV (Day 43): 2.73 ± 1.36
  body weights of the animals after administering (FIG. 9), in words: reduced
  death of animals: no death
  Animal body weight (g) (After tumor removal): 25.35 ± 1.15 g
  Tumor inhibition rate %: 84.50%
[1]; 40 mg/kg
  RTV (Day 43): 0.13 ± 0.02
  body weights of the animals after administering (FIG. 9), in words: severely reduced
  Animal body weight (g) (After tumor removal): 18.71 ± 2.78 g
  Tumor inhibition rate %: 99.24%
[1]; 40 mg/kg, died on Day 33
  death of animals (number of animals died): 1 animal
[2]; 25 mg DTX/kg
  relative tumor volume after 21 days (after the administration was stopped) (FIG. 5): continued to increase with time
  relative tumor inhibition rate: 67.62%

## CC(=O)OC12COC1CC(O)C1(C)C(=O)C(OC(=O)Nc3ccc(C(C)=O)cc3)C3=C(C)C(OC(=O)C(O)C(NC(=O)OC(C)(C)C)c4ccccc4)CC(O)(C(OC(=O)c4ccccc4)C21)C3(C)C (stereo not shown) [DTX-AI]
[1]; 20 mg/kg
  RTV (Day 43): 6.62 ± 2.10
  body weights of the animals after administering (FIG. 9), in words: basically not affected
  Animal body weight (g) (After tumor removal): 25.52 ± 0.99 g
  Tumor inhibition rate %: 62.38%
[1]; 40 mg/kg, 60 mg/kg and 80 mg/kg groups
  tumor rebound after drug withdrawal: no tumor rebound occurred
[1]; 40 mg/kg
  RTV (Day 43): 0.13 ± 0.03
  body weights of the animals after administering (FIG. 9), in words: slightly reduced
  Animal body weight (g) (After tumor removal): 24.07 ± 1.19 g
  Tumor inhibition rate %: 99.28%
[1]; 60 mg/kg
  RTV (Day 43): 0.09 ± 0.02
  body weights of the animals after administering (FIG. 9), in words: slightly reduced
  Animal body weight (g) (After tumor removal): 24.24 ± 1.43 g
  Tumor inhibition rate %: 99.50%
[1]; 80 mg/kg
  RTV (Day 43): 0.13 ± 0.05
  body weights of the animals after administering (FIG. 9), in words: reduced
  Animal body weight (g) (After tumor removal): 20.99 ± 2.86 g
  Tumor inhibition rate %: 99.27%
[1]; 4 dose groups (20, 40, 60, 80 mg/kg)
  death of animals: No death occurred
[2]; 40 mg DTX/kg
  relative tumor volume after 21 days (after the administration was stopped) (FIG. 5): still showed a decreasing trend with time
  tumor sizes after the completion of the treatment (photograph, FIG. 7): significantly smaller than those of the first group and the blank control group
  relative tumor inhibition rate: 93.5%
[2]; 40 mg DTX/kg, compared with blank control group
  body weights of the mice over treatment time (FIG. 4): basically the same as those in the blank control group
